Source: patent US9067894B1, “Compound, composition, and method of activating GIRK potassium channel and use of same for treating conditions of interest” (Vanderbilt University, priority 2013, dated 2015)

Tests used:
Rotarod test = type: in vivo, mouse; conditions: mice, 60 mg/kg i.p.
Experimental: For rotarod tests, a rotarod module was inserted into a mouse home cage and was operated by the SmartCage™ (AfaSci, Inc., Redwood City, Calif.) system28. A mouse was placed on the rod and the rod began to rotate at a fixed speed (15 rpm). Latencies for the mice to fall off the rod were recorded. […] Two groups of mice (n=8 mice/group) were trained on the rotarod over 4 consecutive days. On training days, each mouse was allowed to perform on the rotarod a total of 4 times. For each training day, each mouse's lowest rotarod latency was excluded. The remaining 3 rotarod latencies were averaged and served as the mouse's rotarod performance for that training day. […] Approximately 1 hour post-drug/vehicle injection, each mouse's rotarod performance was assessed a total of 4 times with the mouse's worst performance being excluded. The remaining 3 rotarod latencies were then averaged for each mouse and these values were normalized to the mouse's previous performance on the final training day to account for variation in individual animal's competency on the rotarod.

[1] = Pentylenetetrazol (PTZ)-induced seizure model; type: in vivo, mouse; conditions: mice, i.p.; VU0456810 60 mg/kg, sodium valproate 150 mg/kg; PTZ 40 mg/kg; 20 minute timeframe
Experimental: After thirty minutes, PTZ was administered intraperitoneally (i.p., 40 mg/kg). Immediately following administration of PTZ, the amount of time elapsed before the first occurrence of tremors, tonic-clonic seizures, convulsion, and death was recorded. All mice were subject to a 20-minute post-[…] cutoff.
In all cases, experiments were conducted in a blind manner with respect to the experimenters. Data were evaluated in Excel using one-tailed, unpaired Student's t-test, assuming populations with unequal variance.

Adrenergic β2 = target: T1, Adrenergic β2 (Homo sapiens, UniProt P07550); assay: Radioligand displacement (Ricerca); type: binding
T1 construct: Ricerca

Bradykinin B1 = target: T2, Bradykinin B1 (Homo sapiens, UniProt P46663); assay: Radioligand displacement (Ricerca); type: binding
T2 construct: Ricerca

Glutamate (NMDA, PCP) = assay: Radioligand displacement (Ricerca); type: binding, rat; conditions: 10 μM
Muscarinic M1 = target: T3, Muscarinic M1 (Homo sapiens, UniProt P11229); assay: Radioligand displacement (Ricerca); type: binding
T3 construct: Ricerca (contract laboratory that ran the panel)

Phorbol ester = assay: Radioligand displacement (Ricerca); type: binding, mouse; conditions: 10 μM
Rolipram (PDE4) = assay: Radioligand displacement (Ricerca); type: binding, human; conditions: 10 μM
Serotonin 5-HT3 = target: T4, Serotonin 5-HT3 (Homo sapiens, UniProt P46098); assay: Radioligand displacement (Ricerca); type: binding
T4 construct: Ricerca (contract panel)
T4 sequence (P46098 24-478): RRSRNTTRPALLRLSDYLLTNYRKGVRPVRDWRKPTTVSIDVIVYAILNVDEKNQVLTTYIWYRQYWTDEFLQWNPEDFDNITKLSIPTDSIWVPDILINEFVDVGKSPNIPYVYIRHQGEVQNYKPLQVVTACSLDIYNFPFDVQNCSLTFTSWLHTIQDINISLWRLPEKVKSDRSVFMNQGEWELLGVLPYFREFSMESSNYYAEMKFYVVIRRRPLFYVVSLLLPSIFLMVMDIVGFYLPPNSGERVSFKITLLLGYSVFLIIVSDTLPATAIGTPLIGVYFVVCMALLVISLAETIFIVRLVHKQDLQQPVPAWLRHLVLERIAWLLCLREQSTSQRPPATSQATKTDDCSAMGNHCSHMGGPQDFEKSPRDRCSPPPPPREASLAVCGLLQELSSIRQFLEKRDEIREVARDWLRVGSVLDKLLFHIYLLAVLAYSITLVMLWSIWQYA

T3 sequence (P11229 whole entry): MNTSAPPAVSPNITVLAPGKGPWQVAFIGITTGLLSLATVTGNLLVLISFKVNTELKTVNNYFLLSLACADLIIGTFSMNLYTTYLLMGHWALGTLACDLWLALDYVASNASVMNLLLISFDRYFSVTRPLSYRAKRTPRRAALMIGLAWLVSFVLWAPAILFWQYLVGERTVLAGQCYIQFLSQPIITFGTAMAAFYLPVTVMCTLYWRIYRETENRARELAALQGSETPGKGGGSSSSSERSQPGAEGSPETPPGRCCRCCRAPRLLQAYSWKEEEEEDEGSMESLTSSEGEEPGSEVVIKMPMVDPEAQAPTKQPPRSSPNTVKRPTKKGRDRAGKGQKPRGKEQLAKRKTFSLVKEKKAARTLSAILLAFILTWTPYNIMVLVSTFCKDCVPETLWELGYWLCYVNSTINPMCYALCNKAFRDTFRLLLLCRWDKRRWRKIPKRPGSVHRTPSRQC
T2 sequence (P46663 whole entry): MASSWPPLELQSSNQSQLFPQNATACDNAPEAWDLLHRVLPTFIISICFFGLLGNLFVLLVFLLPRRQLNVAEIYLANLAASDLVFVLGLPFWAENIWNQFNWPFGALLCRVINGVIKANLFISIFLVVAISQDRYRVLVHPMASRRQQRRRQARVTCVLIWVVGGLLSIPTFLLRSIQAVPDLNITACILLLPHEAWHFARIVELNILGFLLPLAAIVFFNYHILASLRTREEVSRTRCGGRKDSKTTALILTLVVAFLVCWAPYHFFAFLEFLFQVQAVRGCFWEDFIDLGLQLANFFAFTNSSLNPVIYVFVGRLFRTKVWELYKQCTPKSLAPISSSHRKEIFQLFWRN
T1 sequence (P07550 whole entry): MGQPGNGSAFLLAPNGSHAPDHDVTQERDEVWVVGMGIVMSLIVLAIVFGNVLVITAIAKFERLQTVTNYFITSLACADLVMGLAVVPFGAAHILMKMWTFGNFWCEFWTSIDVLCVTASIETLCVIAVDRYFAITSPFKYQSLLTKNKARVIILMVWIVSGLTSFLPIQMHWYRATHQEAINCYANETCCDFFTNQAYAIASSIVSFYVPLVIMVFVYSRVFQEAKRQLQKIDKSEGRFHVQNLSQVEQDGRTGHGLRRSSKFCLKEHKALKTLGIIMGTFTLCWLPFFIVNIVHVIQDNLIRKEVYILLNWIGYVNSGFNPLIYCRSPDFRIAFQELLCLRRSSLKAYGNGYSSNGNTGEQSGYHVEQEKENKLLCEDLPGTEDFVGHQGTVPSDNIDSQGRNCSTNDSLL

With `Cc1cc(NC(=O)Nc2ccc(F)c(F)c2)n(-c2ccccc2)n1` [VU0456810, 1-(3,4-difluorophenyl)-3-(3-methyl-1-phenyl-1H-pyrazol-5-yl)urea] the “rotarod performance compared to vehicle” value (Rotarod test) was “small and insignificant decrease”, the “decrease in performance on the rotarod vs vehicle” value (Rotarod test; insignificant (p=0.7)) was 14% and the “animals experiencing convulsions from PTZ treatment” value [1] was 5 out of 8 animals did not experience convulsions and significant decrease. For the same compound, the “animals surviving PTZ treatment” value [1] was 6 out of 8 animals survived and significant increase, the inhibition at 10 µM (Adrenergic β2) was -5% and the inhibition at 10 µM (Bradykinin B1) was -2%. The “% Inhibition” value (Glutamate (NMDA, PCP)) was 1%, the inhibition at 10 µM (Muscarinic M1) was 0% and the “% Inhibition” value (Phorbol ester) was 1%. The “% Inhibition” value (Rolipram (PDE4)) was 11% and the inhibition at 10 µM (Serotonin 5-HT3) was 1%.
